# Tested on: not listed separately
# Assay: Acid dissociation constant was determined
# Type: ADME
row,pKa,Compound
1,4.7,NC(Cc1nc2ccccc2[nH]1)C(=O)O (stereo not drawn)
2,7.5,NC(Cc1nc2c([nH]1)CCCC2)C(=O)O (stereo not drawn)
3,3.4,NC(Cc1nc2cc(Cl)c(Cl)cc2[nH]1)C(=O)O (stereo not drawn)
4,5.4,Cc1cc2nc(CC(N)C(=O)O)[nH]c2cc1C (stereo not drawn)

# Species: Rattus norvegicus
# Assay: Antifertility effect in adult female rats by estrus suppression assay
# Type: functional
row,Compound,Potency
1,CC(C)C[C@H](NC(=O)[C@@H](Cc1nc2ccccc2o1)NC(=O)[C@H](Cc1ccc(O)cc1)NC(=O)[C@H](CO)NC(=O)[C@H](Cc1c[nH]c2ccccc12)NC(=O)[C@H](Cc1c[nH]cn1)NC(=O)[C@@H]1CCC(=O)N1)C(=O)N[C@@H](CCCN=C(N)N)C(=O)N1CCC[C@H]1C(=O)NCC(N)=O,1.2
2,CC(C)C[C@H](NC(=O)[C@@H](Cc1nc2cc(Cl)c(Cl)cc2[nH]1)NC(=O)[C@H](Cc1ccc(O)cc1)NC(=O)[C@H](CO)NC(=O)[C@H](Cc1c[nH]c2ccccc12)NC(=O)[C@H](Cc1c[nH]cn1)NC(=O)[C@@H]1CCC(=O)N1)C(=O)N[C@@H](CCCN=C(N)N)C(=O)N1CCC[C@H]1C(=O)NCC(N)=O,0.9
3,CCNC(=O)[C@@H]1CCCN1C(=O)[C@H](CCCN=C(N)N)NC(=O)[C@H](CC(C)C)NC(=O)[C@@H](Cc1nc2c(ccc3ccccc32)[nH]1)NC(=O)[C@H](Cc1ccc(O)cc1)NC(=O)[C@H](CO)NC(=O)[C@H](Cc1c[nH]c2ccccc12)NC(=O)[C@H](Cc1c[nH]cn1)NC(=O)[C@@H]1CCC(=O)N1,0.8
4,CCNC(=O)[C@@H]1CCCN1C(=O)[C@H](CCCN=C(N)N)NC(=O)[C@H](CC(C)C)NC(=O)[C@@H](Cc1nc2ccccc2[nH]1)NC(=O)[C@H](Cc1ccc(O)cc1)NC(=O)[C@H](CO)NC(=O)[C@H](Cc1c[nH]c2ccccc12)NC(=O)[C@H](Cc1c[nH]cn1)NC(=O)[C@@H]1CCC(=O)N1,1
5,CC(C)C[C@H](NC(=O)[C@@H](Cc1nc2ccccc2s1)NC(=O)[C@H](Cc1ccc(O)cc1)NC(=O)[C@H](CO)NC(=O)[C@H](Cc1c[nH]c2ccccc12)NC(=O)[C@H](Cc1c[nH]cn1)NC(=O)[C@@H]1CCC(=O)N1)C(=O)N[C@@H](CCCN=C(N)N)C(=O)N1CCC[C@H]1C(=O)NCC(N)=O,1
6,CCNC(=O)[C@@H]1CCCN1C(=O)[C@H](CCCN=C(N)N)NC(=O)[C@H](CC(C)C)NC(=O)[C@@H](Cc1nc2c([nH]1)CCCC2)NC(=O)[C@H](Cc1ccc(O)cc1)NC(=O)[C@H](CO)NC(=O)[C@H](Cc1c[nH]c2ccccc12)NC(=O)[C@H](Cc1c[nH]cn1)NC(=O)[C@@H]1CCC(=O)N1,1.4
7,CC(C)C[C@H](NC(=O)[C@@H](Cc1nc2ccccc2[nH]1)NC(=O)[C@H](Cc1ccc(O)cc1)NC(=O)[C@H](CO)NC(=O)[C@H](Cc1c[nH]c2ccccc12)NC(=O)[C@H](Cc1c[nH]cn1)NC(=O)[C@@H]1CCC(=O)N1)C(=O)N[C@@H](CCCN=C(N)N)C(=O)N1CCC[C@H]1C(=O)NCC(N)=O,0.3
8,Cc1cc2nc(C[C@@H](NC(=O)[C@H](Cc3ccc(O)cc3)NC(=O)[C@H](CO)NC(=O)[C@H](Cc3c[nH]c4ccccc34)NC(=O)[C@H](Cc3c[nH]cn3)NC(=O)[C@@H]3CCC(=O)N3)C(=O)N[C@@H](CC(C)C)C(=O)N[C@@H](CCCN=C(N)N)C(=O)N3CCC[C@H]3C(=O)NCC(N)=O)[nH]c2cc1C,1.6
9,CC(C)C[C@H](NC(=O)[C@@H](Cc1nc2c([nH]1)CCCC2)NC(=O)[C@H](Cc1ccc(O)cc1)NC(=O)[C@H](CO)NC(=O)[C@H](Cc1c[nH]c2ccccc12)NC(=O)[C@H](Cc1c[nH]cn1)NC(=O)[C@@H]1CCC(=O)N1)C(=O)N[C@@H](CCCN=C(N)N)C(=O)N1CCC[C@H]1C(=O)NCC(N)=O,0.6

# Source: ChEMBL document CHEMBL1122585, “Synthesis of a novel class of heteroaromatic amino acids and their use in the preparation of analogues of luteinizing hormone-releasing hormone” (J Med Chem, 1984)
